Data reported in the kinase profiling compilation of Christmann-Franck et al. (2016).
Values belong to the compound of their own block, whether it stands above or below them.

Assays:
Assay in all cases: Caliper, Mobility shift assay off-chip
[1] = molecular target: PDGFRA (human) (UniProt P16234)
[2] = molecular target: AXL (human) (UniProt P30530)
[3] = molecular target: MARK1 (human) (UniProt Q9P0L2)
[4] = molecular target: CLK3 (human) (UniProt P49761)
[5] = molecular target: FGFR2 (human) (UniProt P21802)
[6] = molecular target: PIM3 (human) (UniProt Q86V86)
[7] = molecular target: DYRK2 (human) (UniProt Q92630)
[8] = molecular target: SRC (human) (UniProt P12931)
[9] = molecular target: MAPK12 (human) (UniProt P53778)
MAPK12 (human), sequence (P53778 whole entry, looked up): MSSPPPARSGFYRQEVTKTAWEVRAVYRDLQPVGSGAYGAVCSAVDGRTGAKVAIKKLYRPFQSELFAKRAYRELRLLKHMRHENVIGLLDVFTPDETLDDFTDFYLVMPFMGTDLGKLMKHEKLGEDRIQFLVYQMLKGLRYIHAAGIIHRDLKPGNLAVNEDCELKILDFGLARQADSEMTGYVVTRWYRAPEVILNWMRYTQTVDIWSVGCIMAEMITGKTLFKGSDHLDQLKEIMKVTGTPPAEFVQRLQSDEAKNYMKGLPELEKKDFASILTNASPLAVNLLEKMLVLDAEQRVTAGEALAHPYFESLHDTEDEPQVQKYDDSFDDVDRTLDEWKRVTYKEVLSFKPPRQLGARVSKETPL

[10] = molecular target: MST1R (human) (UniProt Q04912)
MST1R (human), sequence (Q04912 whole entry, looked up): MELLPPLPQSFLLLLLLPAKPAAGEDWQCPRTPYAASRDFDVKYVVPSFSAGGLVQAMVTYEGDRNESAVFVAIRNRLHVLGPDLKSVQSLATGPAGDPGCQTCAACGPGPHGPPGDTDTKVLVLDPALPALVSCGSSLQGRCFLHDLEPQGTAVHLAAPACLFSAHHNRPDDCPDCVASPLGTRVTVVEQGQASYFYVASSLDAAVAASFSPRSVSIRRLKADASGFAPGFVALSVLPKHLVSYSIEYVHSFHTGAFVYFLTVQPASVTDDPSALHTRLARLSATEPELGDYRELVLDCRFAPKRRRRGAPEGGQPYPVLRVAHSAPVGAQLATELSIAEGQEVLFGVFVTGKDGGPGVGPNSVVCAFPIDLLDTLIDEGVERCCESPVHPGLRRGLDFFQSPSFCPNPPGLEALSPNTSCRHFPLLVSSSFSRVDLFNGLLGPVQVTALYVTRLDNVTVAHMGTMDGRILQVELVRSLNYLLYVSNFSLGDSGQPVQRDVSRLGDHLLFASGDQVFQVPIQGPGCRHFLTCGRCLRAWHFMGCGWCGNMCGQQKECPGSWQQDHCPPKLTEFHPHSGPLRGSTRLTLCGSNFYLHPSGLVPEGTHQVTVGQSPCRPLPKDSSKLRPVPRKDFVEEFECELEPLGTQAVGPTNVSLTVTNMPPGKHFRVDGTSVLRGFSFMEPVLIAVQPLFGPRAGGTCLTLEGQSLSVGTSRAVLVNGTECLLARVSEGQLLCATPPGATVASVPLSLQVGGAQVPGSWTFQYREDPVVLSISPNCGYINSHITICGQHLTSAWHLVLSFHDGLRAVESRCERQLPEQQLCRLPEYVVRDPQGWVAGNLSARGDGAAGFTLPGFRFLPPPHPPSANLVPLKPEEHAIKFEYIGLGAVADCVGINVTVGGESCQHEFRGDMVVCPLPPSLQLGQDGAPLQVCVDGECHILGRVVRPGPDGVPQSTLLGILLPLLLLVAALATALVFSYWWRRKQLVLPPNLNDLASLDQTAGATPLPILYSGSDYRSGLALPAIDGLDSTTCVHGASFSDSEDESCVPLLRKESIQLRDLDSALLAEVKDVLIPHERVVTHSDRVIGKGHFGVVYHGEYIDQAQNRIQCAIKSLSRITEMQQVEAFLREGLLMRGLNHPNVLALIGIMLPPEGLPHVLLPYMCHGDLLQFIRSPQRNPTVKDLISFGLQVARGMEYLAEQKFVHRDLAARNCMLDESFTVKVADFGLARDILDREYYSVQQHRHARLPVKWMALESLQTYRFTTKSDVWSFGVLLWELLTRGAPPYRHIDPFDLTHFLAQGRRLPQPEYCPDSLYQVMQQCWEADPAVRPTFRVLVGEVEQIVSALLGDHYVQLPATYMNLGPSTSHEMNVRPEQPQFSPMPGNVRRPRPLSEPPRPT

[11] = molecular target: MAPK3 (human) (UniProt P27361)
MAPK3 (human), sequence (P27361 whole entry, looked up): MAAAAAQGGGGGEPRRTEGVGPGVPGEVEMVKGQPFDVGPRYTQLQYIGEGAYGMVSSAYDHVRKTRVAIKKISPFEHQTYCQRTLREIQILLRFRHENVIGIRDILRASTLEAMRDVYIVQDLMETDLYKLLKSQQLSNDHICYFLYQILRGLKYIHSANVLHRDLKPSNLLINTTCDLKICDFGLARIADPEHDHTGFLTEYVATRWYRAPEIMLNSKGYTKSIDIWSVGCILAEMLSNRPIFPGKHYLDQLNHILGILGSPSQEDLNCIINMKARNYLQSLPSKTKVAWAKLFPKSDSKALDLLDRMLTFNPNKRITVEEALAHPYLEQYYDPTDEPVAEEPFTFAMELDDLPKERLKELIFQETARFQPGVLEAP

[12] = molecular target: EPHA7 (human) (UniProt Q15375)
[13] = molecular target: SYK (human) (UniProt P43405)
[14] = molecular target: CSK (human) (UniProt P41240)
[15] = molecular target: PBK (human) (UniProt Q96KB5)
PBK (human), sequence (Q96KB5 whole entry, looked up): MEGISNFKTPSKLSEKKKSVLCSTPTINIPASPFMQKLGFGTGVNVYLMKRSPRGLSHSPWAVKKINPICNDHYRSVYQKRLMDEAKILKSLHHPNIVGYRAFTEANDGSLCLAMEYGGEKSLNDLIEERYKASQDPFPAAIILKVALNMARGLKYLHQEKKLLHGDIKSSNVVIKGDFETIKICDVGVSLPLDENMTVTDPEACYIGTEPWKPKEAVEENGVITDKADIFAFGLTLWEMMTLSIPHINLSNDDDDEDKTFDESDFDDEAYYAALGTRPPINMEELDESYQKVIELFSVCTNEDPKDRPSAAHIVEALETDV

[16] = molecular target: HIPK4 (human) (UniProt Q8NE63)
HIPK4 (human), sequence (Q8NE63 whole entry, looked up): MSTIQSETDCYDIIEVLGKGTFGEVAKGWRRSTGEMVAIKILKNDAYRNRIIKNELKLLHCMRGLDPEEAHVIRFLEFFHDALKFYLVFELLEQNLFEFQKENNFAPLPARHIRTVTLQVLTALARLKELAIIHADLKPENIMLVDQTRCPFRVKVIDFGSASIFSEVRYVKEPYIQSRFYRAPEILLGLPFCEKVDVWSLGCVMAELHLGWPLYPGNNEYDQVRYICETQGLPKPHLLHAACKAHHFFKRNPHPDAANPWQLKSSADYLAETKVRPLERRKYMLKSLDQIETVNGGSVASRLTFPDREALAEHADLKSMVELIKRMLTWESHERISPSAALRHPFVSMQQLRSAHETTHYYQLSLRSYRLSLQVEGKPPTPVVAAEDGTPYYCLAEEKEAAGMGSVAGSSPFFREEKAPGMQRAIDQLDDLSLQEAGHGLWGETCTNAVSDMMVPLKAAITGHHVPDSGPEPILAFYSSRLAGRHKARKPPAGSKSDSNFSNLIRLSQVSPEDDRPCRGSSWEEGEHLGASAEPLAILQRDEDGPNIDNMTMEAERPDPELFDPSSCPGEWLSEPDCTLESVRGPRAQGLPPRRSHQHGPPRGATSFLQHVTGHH

[17] = molecular target: EPHA2 (human) (UniProt P29317)
[18] = molecular target: PASK (human) (UniProt Q96RG2)
[19] = molecular target: TYK2 JH1 JH2 (human) (UniProt P29597)
[20] = molecular target: AKT2 (human) (UniProt P31751)
[21] = molecular target: PIM2 (human) (UniProt Q9P1W9)
[22] = molecular target: AURKB (human) (UniProt Q96GD4)
AURKB (human), sequence (Q96GD4 whole entry, looked up): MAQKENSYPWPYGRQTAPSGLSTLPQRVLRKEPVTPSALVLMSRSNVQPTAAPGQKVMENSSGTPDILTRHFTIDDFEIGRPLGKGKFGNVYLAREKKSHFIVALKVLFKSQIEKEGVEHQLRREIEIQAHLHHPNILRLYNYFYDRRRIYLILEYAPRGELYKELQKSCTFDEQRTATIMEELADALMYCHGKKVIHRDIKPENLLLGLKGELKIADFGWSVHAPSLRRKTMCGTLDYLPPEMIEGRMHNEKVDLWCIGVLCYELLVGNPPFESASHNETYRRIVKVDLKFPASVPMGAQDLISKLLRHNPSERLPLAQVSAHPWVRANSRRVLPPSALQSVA

[23] = molecular target: AKT1 (human) (UniProt P31749)
AKT1 (human), sequence (P31749 whole entry, looked up): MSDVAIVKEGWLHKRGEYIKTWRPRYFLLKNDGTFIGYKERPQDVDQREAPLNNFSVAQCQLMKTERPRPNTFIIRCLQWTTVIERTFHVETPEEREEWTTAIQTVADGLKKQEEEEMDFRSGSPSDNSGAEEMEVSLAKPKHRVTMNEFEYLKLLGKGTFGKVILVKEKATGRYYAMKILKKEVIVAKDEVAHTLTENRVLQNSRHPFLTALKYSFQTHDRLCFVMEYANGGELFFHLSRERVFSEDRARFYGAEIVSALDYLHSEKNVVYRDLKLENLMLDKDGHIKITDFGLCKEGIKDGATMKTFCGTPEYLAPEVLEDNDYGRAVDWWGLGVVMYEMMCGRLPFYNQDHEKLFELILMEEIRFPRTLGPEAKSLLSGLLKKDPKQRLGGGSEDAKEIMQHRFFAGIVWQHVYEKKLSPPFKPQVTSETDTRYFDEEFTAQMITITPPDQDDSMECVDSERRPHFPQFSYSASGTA

[24] = molecular target: TSSK2 (human) (UniProt Q96PF2)
[25] = molecular target: TSSK1B (human) (UniProt Q9BXA7)
[26] = molecular target: LATS2 (human) (UniProt Q9NRM7)
LATS2 (human), sequence (Q9NRM7 whole entry, looked up): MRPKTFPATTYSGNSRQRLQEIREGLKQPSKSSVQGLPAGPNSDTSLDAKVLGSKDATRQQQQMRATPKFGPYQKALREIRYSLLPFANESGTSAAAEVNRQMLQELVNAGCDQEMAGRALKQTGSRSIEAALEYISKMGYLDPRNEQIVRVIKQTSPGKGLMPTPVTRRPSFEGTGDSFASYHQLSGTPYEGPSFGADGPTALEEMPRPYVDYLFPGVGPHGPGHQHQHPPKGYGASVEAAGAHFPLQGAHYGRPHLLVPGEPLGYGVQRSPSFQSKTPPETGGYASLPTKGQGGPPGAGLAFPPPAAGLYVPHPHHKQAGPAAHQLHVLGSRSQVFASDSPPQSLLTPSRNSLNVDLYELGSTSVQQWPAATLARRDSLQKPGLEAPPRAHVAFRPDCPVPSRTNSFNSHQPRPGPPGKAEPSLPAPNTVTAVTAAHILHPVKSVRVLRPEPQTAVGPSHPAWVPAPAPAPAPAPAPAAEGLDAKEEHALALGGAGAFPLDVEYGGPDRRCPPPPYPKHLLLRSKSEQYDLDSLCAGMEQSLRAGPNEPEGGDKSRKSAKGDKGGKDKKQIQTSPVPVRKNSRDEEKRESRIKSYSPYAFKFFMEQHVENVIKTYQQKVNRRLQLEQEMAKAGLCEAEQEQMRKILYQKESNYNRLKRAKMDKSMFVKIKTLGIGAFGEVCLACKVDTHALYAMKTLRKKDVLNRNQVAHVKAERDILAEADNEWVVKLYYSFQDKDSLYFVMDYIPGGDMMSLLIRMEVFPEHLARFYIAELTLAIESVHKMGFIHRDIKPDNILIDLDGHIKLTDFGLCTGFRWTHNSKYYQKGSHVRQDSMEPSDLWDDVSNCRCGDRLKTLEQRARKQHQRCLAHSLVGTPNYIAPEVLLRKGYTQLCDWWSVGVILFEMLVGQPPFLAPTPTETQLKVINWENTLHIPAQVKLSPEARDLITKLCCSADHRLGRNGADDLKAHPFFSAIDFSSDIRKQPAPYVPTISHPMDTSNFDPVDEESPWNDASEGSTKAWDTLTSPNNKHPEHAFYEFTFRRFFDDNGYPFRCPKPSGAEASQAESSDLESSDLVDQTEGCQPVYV

[27] = molecular target: NEK2 (human) (UniProt P51955)
[28] = molecular target: IGF1R (human) (UniProt P08069)
[29] = molecular target: SPHK1 (human) (UniProt Q9NYA1)
[30] = molecular target: BLK (human) (UniProt P51451)
[31] = molecular target: CDK4 (human) (UniProt P11802)
[32] = molecular target: NEK9 (human) (UniProt Q8TD19)
[33] = molecular target: BTK (human) (UniProt Q06187)
[34] = molecular target: RPS6KA3 KD1 KD2 (human) (UniProt P51812)

- inhibition ([1]; compound 0.001 µM): 33.1%
- inhibition ([2]; compound 0.001 µM): -0.8%
- inhibition ([2]; compound 0.02 µM): 4.1%
- inhibition ([3]; compound 0.001 µM): -3.2%
- inhibition ([4]; compound 0.001 µM): 10.3%
- inhibition ([4]; compound 0.02 µM): -5.1%
- inhibition ([5]; compound 0.001 µM): 10.6%
- inhibition ([5]; compound 0.02 µM): 54.1%
- inhibition ([6]; compound 0.001 µM): -7.7%
- inhibition ([6]; compound 0.02 µM): -5.9%
- inhibition ([7]; compound 0.001 µM): 8.7%
- inhibition ([7]; compound 0.02 µM): -6.4%
- inhibition ([8]; compound 0.001 µM): 1.3%
- inhibition ([8]; compound 0.02 µM): -0.2%
- inhibition ([9]; compound 0.001 µM): -3.7%
- inhibition ([9]; compound 0.02 µM): -4.6%
- inhibition ([10]; compound 0.001 µM): 0.8%
- inhibition ([10]; compound 0.02 µM): 1.8%
- inhibition ([11]; compound 0.001 µM): -4.1%
- inhibition ([11]; compound 0.02 µM): -6.1%
- inhibition ([12]; compound 0.001 µM): -3.2%
- inhibition ([12]; compound 0.02 µM): -0.8%
- inhibition ([13]; compound 0.001 µM): -9.8%
- inhibition ([13]; compound 0.02 µM): -8.9%
- inhibition ([14]; compound 0.001 µM): -4.6%
- inhibition ([14]; compound 0.02 µM): -6.7%
- inhibition ([15]; compound 0.001 µM): -7.6%
- inhibition ([15]; compound 0.02 µM): -7.4%
- inhibition ([16]; compound 0.001 µM): -3.1%
- inhibition ([16]; compound 0.02 µM): 1.9%
- inhibition ([17]; compound 0.001 µM): -8.3%
- inhibition ([17]; compound 0.02 µM): -6.2%
- inhibition ([18]; compound 0.001 µM): -6.3%
- inhibition ([18]; compound 0.02 µM): -0.6%
- inhibition ([19]; compound 0.001 µM): 3.7%
- inhibition ([19]; compound 0.02 µM): 1.6%
- inhibition ([20]; compound 0.001 µM): 0.8%
- inhibition ([20]; compound 0.02 µM): -4.1%
- inhibition ([21]; compound 0.001 µM): 4.4%
- inhibition ([21]; compound 0.02 µM): 2.5%
- inhibition ([22]; compound 0.001 µM): 5.9%
- inhibition ([22]; compound 0.02 µM): 48.4%
- inhibition ([23]; compound 0.001 µM): -4.4%
- inhibition ([23]; compound 0.02 µM): -4.8%
- inhibition ([24]; compound 0.001 µM): -5.1%
- inhibition ([24]; compound 0.02 µM): -5.4%
- inhibition ([25]; compound 0.001 µM): -4.2%
- inhibition ([25]; compound 0.02 µM): -3.6%
- inhibition ([26]; compound 0.02 µM): -2.3%
- inhibition ([27]; compound 0.001 µM): 5.7%
- inhibition ([27]; compound 0.02 µM): 4.7%
- inhibition ([28]; compound 0.001 µM): 0.7%
- inhibition ([28]; compound 0.02 µM): -1.8%
- inhibition ([29]; compound 0.001 µM): -4.8%
- inhibition ([29]; compound 0.02 µM): -4.1%
- inhibition ([30]; compound 0.001 µM): 0.4%
- inhibition ([30]; compound 0.02 µM): -1.6%
- inhibition ([31]; compound 0.001 µM): -2.2%
- inhibition ([31]; compound 0.02 µM): 2.9%
Compound: CNC(=O)c1ccccc1Sc1ccc2c(/C=C/c3ccccn3)n[nH]c2c1
- inhibition ([32]; compound 0.001 µM): -5.6%
- inhibition ([32]; compound 0.02 µM): -3.7%

- inhibition ([1]; compound 0.02 µM): 65.6%
- inhibition ([1]; compound 0.2 µM): 95.6%
- inhibition ([2]; compound 0.02 µM): 1.7%
- inhibition ([2]; compound 0.2 µM): 10.3%
- inhibition ([3]; compound 0.02 µM): 4.6%
- inhibition ([3]; compound 0.2 µM): 3%
- inhibition ([4]; compound 0.02 µM): -3.9%
- inhibition ([4]; compound 0.2 µM): 9.6%
- inhibition ([5]; compound 0.02 µM): 29%
- inhibition ([5]; compound 0.2 µM): 82.6%
- inhibition ([6]; compound 0.02 µM): -3.4%
- inhibition ([6]; compound 0.2 µM): -4.2%
- inhibition ([7]; compound 0.02 µM): 0.6%
- inhibition ([7]; compound 0.2 µM): 4.1%
- inhibition ([8]; compound 0.02 µM): 8.4%
- inhibition ([8]; compound 0.2 µM): 42.7%
- inhibition ([9]; compound 0.02 µM): -6.3%
- inhibition ([9]; compound 0.2 µM): -2.7%
- inhibition ([10]; compound 0.02 µM): 2.1%
- inhibition ([10]; compound 0.2 µM): 4.9%
- inhibition ([11]; compound 0.02 µM): -5%
- inhibition ([11]; compound 0.2 µM): -2.7%
- inhibition ([12]; compound 0.02 µM): 0.1%
- inhibition ([12]; compound 0.2 µM): 1.7%
- inhibition ([13]; compound 0.02 µM): 4.4%
- inhibition ([13]; compound 0.2 µM): -4.7%
- inhibition ([14]; compound 0.02 µM): -4.8%
- inhibition ([14]; compound 0.2 µM): -0.7%
- inhibition ([15]; compound 0.02 µM): -3.9%
- inhibition ([15]; compound 0.2 µM): -9.3%
- inhibition ([16]; compound 0.02 µM): 6.8%
- inhibition ([16]; compound 0.2 µM): 12.3%
- inhibition ([17]; compound 0.02 µM): -5%
- inhibition ([17]; compound 0.2 µM): -2.8%
- inhibition ([18]; compound 0.02 µM): -0.6%
- inhibition ([18]; compound 0.2 µM): 3.1%
- inhibition ([19]; compound 0.02 µM): 3.7%
- inhibition ([19]; compound 0.2 µM): 7.2%
- inhibition ([20]; compound 0.02 µM): 4.7%
- inhibition ([20]; compound 0.2 µM): 3%
- inhibition ([21]; compound 0.02 µM): 2.7%
- inhibition ([21]; compound 0.2 µM): 6.8%
- inhibition ([33]; compound 0.02 µM): 2.4%
- inhibition ([33]; compound 0.2 µM): 3.1%
- inhibition ([22]; compound 0.02 µM): 2.7%
- inhibition ([22]; compound 0.2 µM): 12.5%
- inhibition ([23]; compound 0.02 µM): -2.3%
- inhibition ([23]; compound 0.2 µM): -2.2%
- inhibition ([24]; compound 0.02 µM): -4.3%
- inhibition ([24]; compound 0.2 µM): -2.4%
- inhibition ([25]; compound 0.02 µM): -1.1%
- inhibition ([25]; compound 0.2 µM): -1.7%
- inhibition ([26]; compound 0.02 µM): -2.1%
- inhibition ([26]; compound 0.2 µM): -0.3%
- inhibition ([27]; compound 0.02 µM): 5.4%
- inhibition ([27]; compound 0.2 µM): 12%
- inhibition ([29]; compound 0.02 µM): -4.8%
- inhibition ([29]; compound 0.2 µM): -5.9%
- inhibition ([30]; compound 0.02 µM): 7.7%
- inhibition ([30]; compound 0.2 µM): 22.7%
- inhibition ([31]; compound 0.2 µM): 13.2%
- inhibition ([34]; compound 0.02 µM): 0.7%
- inhibition ([34]; compound 0.2 µM): 3.1%
Compound: Cc1ccc(Nc2nccc(N(C)c3ccc4c(C)n(C)nc4c3)n2)cc1S(N)(=O)=O
- inhibition ([32]; compound 0.02 µM): -3.7%
- inhibition ([32]; compound 0.2 µM): 1.4%
